Experimental data published in patent US10889573B2, “Anthelmintic quinoline-3-carboxamide derivatives” (Bayer Animal Health GMBH, priority 2016, dated 2021).

Legend:
C. elegans Slo-1a = C. elegans Slo-1a (Caenorhabditis elegans, UniProt Q95V25); conditions: pE50 (negative decadic logarithm of EC50), CHO cells expressing C. elegans Slo-1a, voltage sensitive dye
[1] = system: Dirofilaria immitis microfilariae; test: In vitro assay 3: Dirofilaria immitis microfilariae (DIROIM L1), motility; conditions: 72 h, read-out: EC50 (reduction of motility), 72 h incubation
[2] = system: Nippostrongylus brasiliensis; test: In vitro assay 2: Nippostrongylus brasiliensis (NIPOBR), acetylcholine esterase readout; conditions: read-out: activity (reduction of AChE compared to negative control); for inhibition at 1 µg/mL: 1 μg/ml; for inhibition at 10 µg/mL: 10 μg/ml
Method: In Vitro Assay 2: Nippostrongylus brasiliensis (NIPOBR)
Adult Nippostrongylus brasiliensis were washed with saline buffer containing 100 U/ml penicillin, 0.1 mg/ml streptomycin and 2.5 μg/ml amphotericin B. Test compounds were dissolved in DMSO and worms were incubated in medium in a final concentration of 10 μg/ml (10 ppm) respectively 1 μg/ml (1 ppm). An aliquot of the medium was used to determine the acetylcholine esterase activity in comparison to a negative control. The principle of measuring acetylcholine esterase as readout for anthelmintic activity was described in Rapson et al (1986) and Rapson et al (1987).

Cooperia curticei = conditions: for mortality at 20 ppm / mortality at 4 ppm: Cooperia curticei, 120 h, read-out: activity (larval mortality)
Method: In Vitro Assay 6: Cooperia curticei (COOPCU L3)
Solvent: dimethyl sulfoxide
Approximately 40 nematode larvae (Cooperia curticei) are transferred into a test tube containing the compound solution.
After 5 days percentage of larval mortality is recorded. 100% efficacy means all larvae are killed; 0% efficacy means no larvae are killed.

Haemonchus contortus = conditions: 120 h, read-out: activity (larval mortality)
Method: In Vitro Assay 7: Haemonchus contortus (HAEMCO L3)
Solvent: dimethyl sulfoxide
Approximately 40 larvae of the red stomach worm (Haemonchus contortus) are transferred into a test tube containing compound solution.
After 5 days the percentage of larval mortality is recorded. 100% efficacy means all larvae are killed, 0% efficacy means no larvae are killed.

C. elegans Slo-1a, sequence (Q95V25 whole entry): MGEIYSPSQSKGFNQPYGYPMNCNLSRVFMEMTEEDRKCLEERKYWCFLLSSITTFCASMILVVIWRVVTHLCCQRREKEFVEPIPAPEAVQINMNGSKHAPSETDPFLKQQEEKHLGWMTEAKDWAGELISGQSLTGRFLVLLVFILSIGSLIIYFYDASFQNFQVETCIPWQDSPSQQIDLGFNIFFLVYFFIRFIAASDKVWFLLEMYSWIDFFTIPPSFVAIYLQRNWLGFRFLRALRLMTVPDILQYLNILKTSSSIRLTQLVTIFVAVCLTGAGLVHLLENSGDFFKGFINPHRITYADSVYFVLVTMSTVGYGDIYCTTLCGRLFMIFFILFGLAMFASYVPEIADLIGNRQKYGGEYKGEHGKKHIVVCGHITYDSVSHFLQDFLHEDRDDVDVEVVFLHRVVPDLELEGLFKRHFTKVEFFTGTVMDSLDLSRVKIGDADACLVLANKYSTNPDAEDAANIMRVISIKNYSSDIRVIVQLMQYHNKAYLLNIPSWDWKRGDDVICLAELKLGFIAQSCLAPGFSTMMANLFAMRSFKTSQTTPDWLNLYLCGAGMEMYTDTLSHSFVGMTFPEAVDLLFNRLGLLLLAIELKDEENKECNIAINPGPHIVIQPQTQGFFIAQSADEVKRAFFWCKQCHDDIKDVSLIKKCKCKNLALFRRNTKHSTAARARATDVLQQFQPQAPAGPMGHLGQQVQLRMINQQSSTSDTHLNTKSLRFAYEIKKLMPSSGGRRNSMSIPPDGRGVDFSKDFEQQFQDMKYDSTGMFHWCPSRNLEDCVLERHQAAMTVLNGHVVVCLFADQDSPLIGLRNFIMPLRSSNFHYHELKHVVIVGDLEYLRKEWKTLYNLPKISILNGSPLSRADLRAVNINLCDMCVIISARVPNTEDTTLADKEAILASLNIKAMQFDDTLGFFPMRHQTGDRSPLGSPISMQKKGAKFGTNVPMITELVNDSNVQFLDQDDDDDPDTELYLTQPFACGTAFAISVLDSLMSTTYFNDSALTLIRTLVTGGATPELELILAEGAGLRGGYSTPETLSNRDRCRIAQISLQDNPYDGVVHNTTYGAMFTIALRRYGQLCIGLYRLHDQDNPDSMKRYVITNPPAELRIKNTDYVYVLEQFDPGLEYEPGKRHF

Structure (SMILES)	EC50 (C. elegans Slo-1a)	EC50 [1]	other results
CN(C)C(=O)c1c(C(=O)N[C@H]2CCOc3ccccc32)cnc2c(-c3cc(Cl)cc(Cl)c3)cccc12 [Example 585]	3.16 to 31.6 nM	< 1 µg/mL	inhibition at 1 µg/mL [2]: > 80%
Cc1ncc(-c2cccc3c(N(C)C)c(C(=O)N[C@H]4CCOc5ccccc54)cnc23)s1 [Example 456]	31.6 to 316 nM	< 1 µg/mL	
O=C(O)CNc1c(C(=O)N[C@H]2CCOc3ccccc32)cnc2c(-c3cc(Cl)cc(Cl)c3)cccc12 [Example 276]	31.6 to 316 nM	< 0.1 µg/mL	mortality at 20 ppm (Cooperia curticei): 90%; inhibition at 1 µg/mL [2]: > 80%; mortality at 20 ppm (Haemonchus contortus): 80%
CN(C)c1c(C(=O)N[C@H]2CCOc3ccccc32)cnc2c(-c3ccc(F)cc3Cl)cc(F)cc12 [Example 180]	3.16 to 31.6 nM	< 0.1 µg/mL	mortality at 20 ppm (Haemonchus contortus): 80%
Cn1cc(-c2c(C(=O)N[C@H]3CCOc4ccccc43)cnc3c(-c4cc(Cl)cc(Cl)c4)cccc23)c(=O)n(C)c1=O [Example 654]	31.6 to 316 nM	< 1 µg/mL	
COc1ccc(F)cc1-c1cccc2c(N3CCC(O)C3)c(C(=O)N[C@H]3CCOc4ccccc43)cnc12 (mixture of isomers) [Example 270]	3.16 to 31.6 nM	< 0.1 µg/mL	
O=C(N[C@H]1CCc2ccccc21)c1cnc2c(-c3cc(Cl)cc(Cl)c3)cccc2c1N1CC(O)C1 [Example 102]	3.16 to 31.6 nM	< 1 µg/mL	
CN(C)c1c(C(=O)NC2COCc3ccccc32)cnc2c(-c3cc(Cl)cc(Cl)c3)cccc12 (centres unmarked) [Example 581]	31.6 to 316 nM	< 0.1 µg/mL	inhibition at 1 µg/mL [2]: > 80%
O=C(N[C@H]1CCOc2ccccc21)c1cnc2c(-c3cc(Cl)cc(Cl)c3)cccc2c1N1CCC[C@@H]1CO [Example 287]	3.16 to 31.6 nM	< 10 µg/mL	inhibition at 1 µg/mL [2]: > 80%
C=C(C)c1c(C(=O)N[C@H]2CCOc3ccccc32)cnc2c(-c3cc(Cl)cc(Cl)c3)cccc12 [Example 317, 8-(3,5-dichlorophenyl)-N-[(4S)-3,4-dihydro-2H-chromen-4-yl]-4-(prop-1-en-2-yl)quinoline-3-carboxamide]	3.16 to 31.6 nM	< 0.1 µg/mL	
O=C(N[C@H]1CCOc2ccccc21)c1cnc2c(-c3cc(Cl)cc(Cl)c3)cccc2c1N1CCC(F)(F)CC1 [Example 398]	< 3.16 nM	< 10 µg/mL	
COC(=O)CNc1c(C(=O)N[C@H]2CCOc3ccccc32)cnc2c(-c3cc(Cl)cc(Cl)c3)cccc12 [Example 375]	3.16 to 31.6 nM	< 0.1 µg/mL	inhibition at 1 µg/mL [2]: > 80%
O=C(NC1CCOc2ccccc21)c1cnc2c(-c3cc(Cl)cc(Cl)c3)cccc2c1N1CC2CCC(C1)O2 (centres unmarked) [Example 302]	< 3.16 nM	< 10 µg/mL	inhibition at 1 µg/mL [2]: > 80%
Cc1nc2c(-c3cccc(Cl)c3Cl)cccc2c(N(C)C)c1C(=O)N[C@H]1CCOc2ccccc21 [Example 481, 8-(2,3-dichlorophenyl)-N-[(4S)-3,4-dihydro-2H-chromen-4-yl]-4-(dimethylamino)-2-methylquinoline-3-carboxamide]	3.16 to 31.6 nM	< 10 µg/mL	
CCOC(=O)[C@@H]1CCCN1c1c(C(=O)N[C@H]2CCOc3ccccc32)cnc2c(-c3cc(Cl)cc(Cl)c3)cccc12 [Example 320]	3.16 to 31.6 nM	< 1 µg/mL	
CN(C)c1c(C(=O)N[C@H]2CCOc3ccccc32)cnc2c(-c3ccc4ncn(C)c4c3)cccc12 [Example 71]	31.6 to 316 nM	< 1 µg/mL	inhibition at 10 µg/mL [2]: > 80%
CC(C)(C)OC(=O)[C@@H]1CCCN1c1c(C(=O)N[C@H]2CCOc3ccccc32)cnc2c(-c3cc(Cl)cc(Cl)c3)cccc12 [Example 243, tert-butyl 1-{8-(3,5-dichlorophenyl)-3-[(4S)-3,4-dihydro-2H-chromen-4-ylcarbamoyl]quinolin-4-yl}-L-prolinate]	316 to 5010 nM		
O=C(N[C@H]1CCc2ccccc21)c1cnc2c(-c3cc(Cl)cc(Cl)c3)cccc2c1OCC1CCCC1 [Example 348]	3.16 to 31.6 nM	< 1 µg/mL	
CN(C)c1c(C(=O)NC2COCc3c(F)cccc32)cnc2c(-c3cc(Cl)cc(Cl)c3)cccc12 (centres unmarked) [Example 665]	31.6 to 316 nM		
O=C(N[C@H]1CCc2ccccc21)c1cnc2c(-c3cc(Cl)cc(Cl)c3)cccc2c1N1CCC[C@@H]1C(=O)O [Example 299]	31.6 to 316 nM	< 1 µg/mL	
CCOC(=O)C(C#N)c1c(C(=O)N[C@H]2CCOc3ccccc32)cnc2c(-c3cc(Cl)cc(Cl)c3)cccc12 (stereo partly drawn) [Example 354, ethyl cyano{8-(3,5-dichlorophenyl)-3-[(4S)-3,4-dihydro-2H-chromen-4-ylcarbamoyl]quinolin-4-yl}acetate]	31.6 to 316 nM	< 1 µg/mL	
CC1CN(c2c(C(=O)N[C@H]3CCc4ccccc43)cnc3c(-c4cc(Cl)cc(Cl)c4)cccc23)C1 [Example 120]	31.6 to 316 nM	< 10 µg/mL	

Structure (SMILES)	EC50 (C. elegans Slo-1a)	EC50 [1]	other results
COCCNc1c(C(=O)N[C@H]2CCc3ccccc32)cnc2c(-c3cc(Cl)cc(Cl)c3)cccc12 [Example 298]	< 3.16 nM		mortality at 20 ppm (Cooperia curticei): 80%
O=C(N[C@H]1CCOc2ccccc21)c1cnc2c(-c3cc(Cl)cc(Cl)c3)c(O)ccc2c1N1CCOCC1 [Example 616]	< 3.16 nM	< 0.1 µg/mL	
COc1cc(F)c(-c2cccc3c(N4CCOCC4)c(C(=O)N[C@H]4CCOc5ccccc54)cnc23)cc1F [Example 230]	31.6 to 316 nM	< 1 µg/mL	
O=C(N[C@H]1CCOc2ccccc21)c1cnc2c(-c3cc(Cl)cc(Cl)c3)cccc2c1C1CCNC1 (mixture of isomers) [Example 519]	31.6 to 316 nM	< 10 µg/mL	
O=C(N[C@H]1CCOc2ccccc21)c1cnc2c(-c3cc(Cl)ccc3F)cc(O)cc2c1N1CCOCC1 [Example 626]	3.16 to 31.6 nM	< 0.1 µg/mL	inhibition at 1 µg/mL [2]: > 80%
CC(C)(C)OC(=O)[C@@H]1CCCN1c1c(C(=O)N[C@H]2CCc3ccccc32)cnc2c(-c3cc(Cl)cc(Cl)c3)cccc12 [Example 241]	31.6 to 316 nM	< 1 µg/mL	
CN(C)c1c(C(=O)NC2CCOc3c(Br)cccc32)cnc2c(-c3cc(Cl)cc(Cl)c3)cccc12 (centres unmarked) [Example 634]	31.6 to 316 nM	< 0.1 µg/mL	inhibition at 1 µg/mL [2]: > 80%
CN(C)c1c(C(=O)N[C@H]2CCOc3ccccc32)cnc2c(-c3ccc(C#N)s3)cccc12 [Example 389]	31.6 to 316 nM	< 10 µg/mL	
CC(=O)N(C)Cc1c(C(=O)N[C@H]2CCOc3ccccc32)cnc2c(-c3cc(Cl)cc(Cl)c3)cccc12 [Example 631]	< 3.16 nM	< 10 µg/mL	mortality at 4 ppm (Cooperia curticei): 100%; mortality at 20 ppm (Cooperia curticei): 100%; inhibition at 1 µg/mL [2]: > 80%; mortality at 4 ppm (Haemonchus contortus): 100%; mortality at 20 ppm (Haemonchus contortus): 100%
CC(C)(C)OC(=O)[C@@H]1CCCN1c1c(C(=O)N[C@H]2CCOc3ccccc32)cnc2c(-c3cc(Cl)cc(Cl)c3)cccc12 [Example 242]	31.6 to 316 nM	< 1 µg/mL	
O=C(N[C@H]1CCOc2ccccc21)c1cnc2c(-c3ccc(F)c(Cl)c3)cccc2c1N1CCOCC1 [Example 190]			activity (larval mortality) (Cooperia curticei; 0.8 ppm, after 5 days): 80%
O=C(N[C@H]1CCOc2ccccc21)c1cnc2c(-c3cc(Cl)cc(Cl)c3)cccc2c1CCO [Example 593]	3.16 to 31.6 nM		
COC(=O)c1cc(-c2cccc3c(N4CCOCC4)c(C(=O)N[C@H]4CCOc5ccccc54)cnc23)c2ocnc2c1 [Example 216]	31.6 to 316 nM	< 1 µg/mL	
O=C(N[C@H]1CCOc2ccccc21)c1cnc2c(-c3cc(Cl)cc(Cl)c3)cccc2c1Cl [Example 4, 4-chloro-8-(3,5-dichlorophenyl)-N-[(4S)-3,4-dihydro-2H-chromen-4-yl]quinoline-3-carboxamide]	3.16 to 31.6 nM	< 0.1 µg/mL	
O=C(N[C@H]1CCOc2ccccc21)c1cnc2c(-c3cc(Cl)cc(Cl)c3)cccc2c1CO [Example 592]	316 to 5010 nM		
CN(C)c1c(C(=O)N[C@H]2CCOc3ccccc32)cnc2c(-c3cc(C#N)cc(Cl)c3Cl)cccc12 [Example 624]	< 3.16 nM	< 0.1 µg/mL	mortality at 4 ppm (Cooperia curticei): 80%; mortality at 20 ppm (Cooperia curticei): 100%; inhibition at 1 µg/mL [2]: > 80%; mortality at 20 ppm (Haemonchus contortus): 80%
CN(C)c1c(C(=O)NC2CCOc3ccc(Br)cc32)cnc2c(-c3cc(Cl)cc(Cl)c3)cccc12 (centres unmarked) [Example 580]	316 to 5010 nM	< 1 µg/mL	
O=C(N[C@H]1CCOc2ccccc21)c1cnc2c(-c3cc(Cl)cc(Cl)c3)cccc2c1Sc1ccccn1 [Example 363]	316 to 5010 nM	< 10 µg/mL	inhibition at 10 µg/mL [2]: > 80%
O=C(N[C@H]1CCc2ccccc21)c1cnc2c(-c3cccc(Cl)c3)cccc2c1Cl [Example 6]	3.16 to 31.6 nM	< 0.1 µg/mL	
O=C(N[C@H]1CCOc2ccccc21)c1cnc2c(-c3cccc(Cl)c3Cl)cccc2c1C1=CCOCC1 [Example 653]	< 3.16 nM	< 0.1 µg/mL	inhibition at 1 µg/mL [2]: > 80%
Cc1ccc(C)c(-c2cccc3c(N(C)C)c(C(=O)N[C@H]4CCOc5ccccc54)cnc23)c1 [Example 471]	3.16 to 31.6 nM	< 0.1 µg/mL	mortality at 20 ppm (Cooperia curticei): 80%; inhibition at 1 µg/mL [2]: > 80%; mortality at 4 ppm (Haemonchus contortus): 80%
